# Tested on: panel of trained evaluators
# Assay: Determination of the GC-odor threshold values (gas chromatograph with sniff port)
# Conditions: for odor threshold value, geometric mean: GC sniff port, absolute amount of compound delivered at the sniff port, identical conditions
# Excerpt: As used herein “odor threshold value” means the lowest concentration of a vapor in the air which can be detected by smell. Generally speaking, it can be said that a compound with a low odor threshold value is more powerful than a compound with a high odor threshold value and thus allows the use of a very low concentration in a fragrance composition to achieve an olfactory effect. According to standard procedures known to the person skilled in the art, threshold values for volatile perfumery compounds are determined on a gas chromatograph equipped with a sniff port by a panel of trained evaluators. The lowest concentration smelled by each panelist is recorded as the individual threshold value expressed in ng (absolute amount of compound delivered at the sniff port). By way of comparison, there were also tested (Z)-2-methyl-3-hexen-1-yl salicylate and (Z)-3-hexen-1-yl 2-hydroxy-3-methylbenzoate. The objective was to show the considerable effect exerted by the position of a substituent. Under identical conditions the odor threshold value for the individual compounds was measured.
SMILES,"odor threshold value, geometric mean",odor threshold of the (Z)-isomer relative to the (E)-isomer (times lower) ((Z)- vs (E)-4-hepten-2-yl salicylate)
CC/C=C\C(C)COC(=O)c1ccccc1O (centres unmarked) [(Z)-2-Methyl-3-hexen-1-yl salicylate],10 ng,
CC/C=C\CCOC(=O)c1cccc(C)c1O [(Z)-3-Hexen-1-yl 2-hydroxy-3-methylbenzoate],201 ng,
CC/C=C\CCOC(=O)c1ccccc1O [(Z)-3-Hexen-1-yl salicylate],0.92 ng,
CC/C=C\CC(C)OC(=O)c1ccccc1O (centres unmarked) [(Z)-4-Hepten-2-yl salicylate],0.77 ng,about 10 times

# From US7842660B2, “4-hepten-2-yl salicylate and its use as fragrance ingredient” (Givaudan SA, priority 2004, dated 2010)
